# From patent publication US20210196789A1, “HEPARIN-BINDING DOMAIN OF IGFBP-2 IN THE TREATMENT OF METABOLIC DISORDERS” (AMOLYT PHARMA, priority 2018, published 2021)
# “Also recorded” adds a separate entry of the source. No end group written: not given here. *: point of attachment. Stearoyl = CCCCCCCCCCCCCCCCCC(=O)*
# Key:
# [1] = tested on: 3T3-LI adipocytes; assay: [3H]-2-deoxyglucose uptake by fully differentiated 3T3-LI adipocytes; type: cell-based, mouse; details: 3 μg/ml for 24 hours
# Protocol: 3T3-LI cells are a mouse fibroblast cell line which when cultured under specific conditions, differentiate into adipocytes.
# Differentiation of 3T3-LI cells into adipocytes was achieved using the following protocol. 3T3-L1 cells were seeded in 24-well plates and cultured in 3T3-L1 maintenance medium (DMEM containing 10% fetal bovine serum, 4 mM L-glutamine 1 mM, sodium pyruvate) until the cells were 100% confluent. The cells were then fed with 3T3-L1 maintenance medium and cultured for a further 48 h. To initiate differentiation into adipocytes, the medium was changed to Differentiation medium 1 (DMEM containing 10% fetal bovine serum, 4 mM L-glutamine, 1 mM sodium pyruvate, 0.5 mM IBMX, […]), and cultured for a further 2 days. The medium was then changed to Differentiation medium 2 (DMEM containing 10% fetal bovine serum, 4 mM L-glutamine, 1 mM sodium pyruvate, 1 mg/ml insulin), and cultured for a further 2 days. The medium was then changed to Adipocyte Maintenance medium (DMEM containing 10% fetal bovine serum, 4 mM L-glutamine, 1 mM sodium pyruvate), and cultured for a further 7 days. During this time, the medium was changed every other day. The now fully differentiated adipocytes were utilized for glucose uptake experiments (day 11 from initiation of differentiation). Stock solutions of the HBD1 peptides to be tested were prepared by dilution with 0.9% NaCl solution under sterile conditions in a laminar flow cabinet to a concentration of 1 mg/ml, based on net peptide content. The solutions were homogenized by gentle inversion. Test items were prepared from the stock solutions, and remaining stock solution was aliquoted and stored at −20° C. and used without repeated freeze-thaw cycles.
# Glucose uptake experiments were carried our using the following protocol. Prior to beginning the experiment, 100 ml of Krebs Ringer bicarbonate buffer (KRBB)(25 mM Hepes pH 7.4, 118 mM NaCl, 5 mM NaHCO3, 4.7 mM KCl, 1.2 mM KH2PO4, 1.2 mM MgSO4, 2.5 mM CaCl2, 0.2% BSA—Filtered using a 0.2 μm filter) and 100 ml of Incubation medium (DMEM containing 4 mM L-glutamine, 1 mM sodium pyruvate, 1% penicillin streptomycin, 0.2% BSA—Filtered using a 0.2 μm filter) were pre-warmed to 37° C., and 500 ml of KRBB was chilled on ice. Stock solutions of test compounds were diluted to 3 μg/ml final concentrations in pre-warmed Incubation medium and in pre-warmed KRBB. Insulin (positive control), previously diluted 1:1000 in sterile 0.9% NaCl, was further diluted in 10 ml of both medium and buffer to a final concentration of 1 nM. All traces of the medium were carefully removed from the cells using a fine tip. 1 ml of incubation medium containing study compounds or vehicle was added to the appropriate wells. No insulin was added at this time. […]
# [2] = tested on: mice; details: mice (Xi, 2013); cited from earlier work
# [3] = tested on: B6.V-Lepob/J mice (ob/ob); assay: Intraperitoneal glucose tolerance test in ob/ob mice after 15 days of twice daily treatment; type: in vivo, mouse; details: 3 mg/kg s.c. twice daily for 15 days, 45 min after 1 g/kg i.p. glucose, vs vehicle
# Protocol: After being acclimatized 7 days to the laboratory conditions, nine-week-old male B6.V-Lepob/J. mice (Charles River) were subcutaneously administered with vehicle (NaCl 0.9%) or with a peptide as set forth in SEQ ID NO: 73 (C18:0-HLGLEEPKK) at 3 mg/kg (n=5 animals for each group) twice daily for 15 days. On day 15, fasted (overnight) mice were injected intraperitoneally with glucose at 1 g/kg. Plasma blood glucose (expressed as mmol/L) was recorded at 45 minutes post glucose injection.
# [4] = tested on: glucose telemetered ob/ob mice; assay: Basal blood glucose and IPGTT in glucose-telemetered ob/ob mice, 28 days of twice daily treatment; type: in vivo, mouse; details: for glucose intolerance: glucose telemetered ob/ob mice, 1 and 3 mg/kg s.c. twice daily, 27-28 days, vs vehicle
# Protocol: To further assess the effects of HBD1 peptides on glucose and insulin metabolisms, basal blood glucose and glucose response to an intraperitoneal glucose tolerance test (IPGTT) were assessed in glucose-telemetered obese ob/ob mice after twice daily administration of HBD peptides for 28 consecutive days. Implantation of glucose telemetry device (HD-XG, Data Science International) was carried out according to known protocols.
# A dose of HBD peptide fragment of SEQ ID NO: 73 (C18:0-HLGLEEPKK) was administered twice daily at 8-hour±1 hour interval between the two daily administrations. 24 V-Lepob/J (Ob/Ob) male mice (The Jackson Laboratory, Farmington, Conn. USA) were administered subcutaneously with vehicle (NaCl 0.9%) (Control group) or with the peptide at 1 and 3 mg/kg (Test groups) (n=5-8 animals for each group) twice daily for 28 days. The first day of dosing was designated as Day 1. Bolus injection was carried out using a sterile syringe and the needle was introduced subcutaneously, 2 to 4 injection sites were used in rotation. The hair of the animals on the injection area was clipped prior to the first injection and then as necessary during the treatment period. The volume administered was 5 mL/kg/administration. Individual dose volumes were calculated using the latest body weight. On day 27, 16-hour mean blood glucose levels were assessed in normal fed conditions. On day 28, fasted (4 hours) mice were injected intraperitoneally with glucose at 1 g/kg. Plasma blood glucose profile (expressed as mg/dL) was recorded every minute up to 3-hour post glucose injection.
# Intraperitoneal glucose tolerance test (IPGTT)—On the morning of the IGPTT day (day 28), 2-hour fasted animals were treated with vehicle or with the HBD fragment. Glucose solution was administered 2 hours±15 minutes post-dosing (vehicle or a peptide as set forth in SEQ ID NO: 73 (C18:0-HLGLEEPKK). Blood glucose was monitored from 10 minutes before (fasting condition) to 3-hour post-glucose challenge. Food was re-introduced 4 hours post-glucose challenge. The second treatment of the day (the HBD fragment or vehicle) was performed 2 hours after food re-introduction.
# [5] = tested on: C2C12 mouse skeletal muscle myotubes; assay: 3H-2-deoxyglucose uptake by fully differentiated C2C12 myotubes; type: cell-based
# Protocol: The studies were performed using cultured, fully differentiated C2C12 mouse skeletal muscle myotubes. The cells were prepared by growing C2C12 cells to confluent density in DMEM with 25 mM glucose and 10% fetal bovine serum in 24 well plates. At this time, the medium was changed to differentiation medium (DMEM with 25 mM glucose and 2% horse serum) for 6 days with medium changed every third day. The various treatments were diluted in serum-free medium and, after washing the cells with serum-free medium, were added to the cells and incubated for 2 hours or alternative times, depending on the treatment. At the end of incubation period, the media was removed and 1.0 ml of glucose-free Krebs ringer bicarbonate buffer (pH 7.4), containing the same treatments, was added and incubation continued for 10 minutes. At the end of the 10 min incubation period, ^3H-2-deoxyglucose ([…]) (specific activity=8 Ci/mmole) was added directly to all wells, and the incubation continued for an additional 10 min. The wells were then rinsed three times with ice cold phosphate buffered saline, the cells were extracted with 0.5 N NaOH, and the ^3H-2-deoxyglucose content of the cell lysate quantitated by scintillation counting.
# [6] = tested on: Akt; assay: Akt phosphorylation (pS473 immunoblot) in C2C12 myotubes; type: cell-based, mouse; details: 8 hours incubation (FIG. 6)
# Protocol: (§1) For signaling studies the cells were prepared the same way except 6-well plates were used. After 6 days incubation in differentiating medium, the cells were washed with serum-free medium. The various treatments were then added in serum free medium containing 0.1% BSA. HBD1 peptides were added and incubated for 8 hours. When utilizing IGF-I, incubation was for 15 minutes after IGF-1 addition. Following incubation the cells were lysed in RIPA buffer and sonicated. The cell lysate was centrifuged and the supernatant analyzed for either Akt or AMPK by SDS PAGE using a 10% gel followed by immunoblotting with the appropriate antibody.
# To examine the intracellular transduction pathways utilized by the HBD1 peptides, following treatment with HBD1 peptide SEQ ID NO: 73 (C18:0-HLGLEEPKK), cell lysate proteins were separated by SDS PAGE and immunoblotted with anti-Akt pS473 antibodies.
# [7] = tested on: AMPK; assay: AMPK phosphorylation (pT172 immunoblot) in C2C12 myotubes; type: cell-based, mouse
# Protocol: as §1
# To examine further the intracellular transduction pathways utilized by the HBD1 peptides, following treatment with HBD1 peptide SEQ ID NO: 73 (C18:0-HLGLEEPKK), cell lysate proteins, were separated by SDS PAGE and immunoblotted with anti-pAMPK T172.
# [8] = listed as acylated HBD1 (3-11) fragment
molecule,measurement,setting,value
KHHLGLEEPKKLR [SEQ ID NO: 1],glucose uptake by 3T3-LI adipocytes,[1],stimulated increased glucose uptake
same,body weight and fat accumulation,[2],decrease body weight and fat accumulation
same,glucose tolerance,[2],no effect on glucose tolerance
C18:0-HLGLEEPKK (Stearoyl-HLGLEEPKK) [SEQ ID NO: 73],plasma glucose levels in response to the IP glucose tolerance test,[3],reduced the plasma glucose levels
same,plasma glucose levels in response to the IP glucose tolerance test,[3]; [8],improves glucose intolerance
same,effect on fasting glucose and glucose excursion at the high dose,"[4]; 3 mg/kg, after 4 weeks",marked effect
same,glucose excursion following IPGTT,"[4]; after 4 weeks of administration, 3-hour profile after 1 g/kg i.p. glucose",decreased
same,fasting glucose levels,"[4]; after 4 weeks of administration, 10 min prior to IPGTT",decreased fasting glucose levels
same,16-hour average blood glucose levels,"[4]; day 27, normal fed conditions",markedly decrease 16-hour average blood glucose levels
same,glucose intolerance,[4],improved glucose intolerance in a dose-dependent manner
same,glucose intolerance,[4]; [8],improves glucose intolerance
same,glucose uptake by 3T3-LI adipocytes,[1],stimulated increased glucose uptake
same,"glucose uptake by C2C12 myotubes with insulin, separate experiment",[5]; 1.5 μM together with insulin (FIG. 8),act additively with insulin; also recorded: in an additive manner with insulin
same,"glucose uptake by C2C12 myotubes, separate experiment","[5]; 1.5 μM, alone (FIG. 8)",increased glucose uptake
same,glucose uptake by C2C12 myotubes,"[5]; 0.8, 1.5, 2.3 μM, 1.5 μM for 2, 4, 16 hours, vs vehicle-treated controls (FIGS. 5A-5B)",stimulated increased glucose uptake as compared with vehicle-treated controls in both a dose- and time-dependent manner; also recorded: dose-dependent (FIG. 5A) and time-dependent (FIG. 5B) increases in glucose uptake
same,glucose uptake by C2C12 myotubes in combination with insulin,[5]; in combination with insulin (FIG. 5C),additive increase in glucose uptake
same,phosphorylated Akt,[6],dose-related increase in phosphorylated Akt; also recorded: dose-dependent phosphorylation (activation) of the Akt pathway
same,phosphorylated AMPK,"[7]; C2C12 myotubes, 8 hours incubation (FIG. 7)",dose-dependent increase in phosphorylated AMPK; also recorded: dose-dependent phosphorylation (activation) of the AMPK pathway
HLGLEEPKK [SEQ ID NO: 10],glucose uptake by 3T3-LI adipocytes,[1],stimulated increased glucose uptake
"c1cc(-c2cnn3cc(-c4ccc(OCCN5CCCCC5)cc4)cnc23)ccn1 [Compound C, reference compound]",effect on SEQ ID NO: 73-stimulated glucose uptake,"[5]; C2C12 myotubes, SEQ ID NO: 73 alone or together with insulin (FIG. 8)",completely abolished; also recorded: prevented
same,effect on SEQ ID NO: 73-induced AMPK phosphorylation,[7]; C2C12 myotubes treated with SEQ ID NO: 73 (FIG. 7),completely abolished; also recorded: prevented
HHLGLEEPKK [SEQ ID NO: 16],glucose uptake by 3T3-LI adipocytes,[1],stimulated increased glucose uptake
